Measured values published in US12391646B2, “Using adiponectin receptor agonists to treat inflammation and bone diseases in diabetes” (Trustees of Tufts College, priority 2020, dated 2025).

Tests used:
APPL1/MyD88 interaction = assay: Co-immunoprecipitation of AdipoR1, APPL1 and MyD88 in Raw264.7 cells; format: cell-based; conditions: AdipoAI (5 μM) and LPS-treated cells compared to control cells
Procedure: FIG. 6 Involvement of APPL1/MyD88 interaction in the anti-inflammatory effects of AdipoAI in macrophages. (a) RAW 264.7 cells were transfected with siRNA targeting MyD88, c-Maf or scrambled control siRNA for 24 h, followed by stimulation with LPS for 6 h. Transfection efficiency of siRNA and mRNA expression levels of proinflammatory cytokines were measured by qPCR and normalized with GAPDH mRNA levels. Data were expressed as the mean±SEM at five biological independent experiments. One-way ANOVA test for multiple-group comparisons, * vs. LPS+Scrambled group, *P<0.05, significant differences between each indicated group. ns, not significant. (b) Raw264.7 cells were transfected with siRNA targeting MyD88 or scrambled control siRNA for 24 h, followed by stimulation with LPS for 30 min for measurement of related proteins. Representative images are shown along with β-actin as an internal loading control and densitometric analysis. Densitometry values-MyD88: 1.00, 0.24, 1.20, 0.33; pIRAK4: 1.00, 0.00; p-P38: 1.00, 0.11. […] Proteins immunoprecipitated with the anti-MyD88 antibody were analyzed by immunoblotting with antibodies for MyD88, APPL1, and AdipoR1. […]
The RAW 264.7 macrophages were seeded at a density of 6×10^6 cells per 100 mm dish. […] The immunoprecipitates were washed with lysis buffer and further analyzed by polyacrylamide gel electrophoresis and Western blot analyses. […]

[1] = test system: LPS-induced Raw264.7 cells; assay: ELISA of IL-6 and IL-1β in supernatants of LPS-induced Raw264.7 cells; format: cell-based; conditions: AdipoAI 5 μM 24 h then LPS 6 h
Procedure: (§1) FIG. 2 AdipoAI suppresses LPS-stimulated inflammatory responses in macrophages. (a) Raw264.7 cells or (b) BMMs were pretreated with APR (20 μM) or AdipoAI (5 μM) for 24 h followed by incubation with LPS (100 ng/mL) for additional 6 h for the measurement of IL-6 and IL-1β in supernatants by ELISA. Data were expressed as the mean±SEM at five biological independent experiments. One-way ANOVA test for multiple-group comparisons, * vs. LPS group, *P<0.05, significant differences between each indicated group. (c) PEMs were isolated from C57BL/6J mice (n=5 mice/group) were injected i.p. with ImL 4% thioglycolate solution or AdipoAI (25 mg/kg) for the measurement of IL-6 and IL-1β. The amounts of IL-6 and IL-1β in supernatant were measured by ELISA. Data were expressed as the mean±SEM (n=5). Two-tailed Student's t-test for two groups, *P<0.05, significant differences between each indicated group. (d-f) Impact of AdipoAI on basal (d) and LPS-induced expression of an array of proinflammatory cytokines, chemokines, and receptors (e,f) in Raw264.7 cells (4 groups and 3 biological replicates/group). Data analyses were performed according to the manufacturer's instructions with their web-based software package (www.qiagen.com/us/shop/genes-and-pathways/data-analysis-center overview-page/). […]

[2] = test system: peritoneal macrophages (PEMs); assay: IL-6 and IL-1β production by peritoneal macrophages isolated from AdipoAI-treated mice; format: in vivo, C57BL/6J mice; conditions: i.p., 20 mg/kg body weight as printed
LPS-induced BMMs = assay: ELISA of IL-6 and IL-1β in supernatants of LPS-induced BMMs; format: cell-based, C57BL/6J mice; conditions: AdipoAI 5 μM 24 h then LPS 6 h
Procedure: as §1

Procedure for RAW 264.7 cells: RAW 264.7 cells were treated with receptor activator of nuclear factor KB ligand (RANKL) (100 ng/ml) for 2 days with or without AdipoRon (20 μM) or AdipoAI (5 μM) for another 2 days. […] (C) The CCK-8 analysis of RAW 264.7 cells treated with 20 μM AdipoRon or 5 μM AdipoAI for 48 h. (D) The CCK-8 analysis of RAW 264.7 cells' proliferation at different doses of APR and AdipoAI. Cells were treated with 100 ng/ml RANKL for 2 days with or without AdipoRon (5, 20 μM) or AdipoAI (5, 20 μM) every 2 days for 4 days. […] Data are shown as mean±SD., compared with the vehicle-treated group, *P<0.05. **P<0.01. ***P<0.001.
RAW 264.7 cells (2×10^3 cells/well) were seeded in 96-well plates and treated with or without AdipoRon or AdipoAI for 48 hours in a humidified chamber at 37° C. in 5% CO2 and air. Cell viability was determined with the Cell Counting Kit-8 (CCK-8 kit, Dojindo, Santa Clara, CA, USA) following the manufacturer's recommendations. Briefly, CCK-8 solution (10 μL) was added to each well and cells were incubated in dark for 3 hours. Cell viability was determined by measuring the absorbance at 450 nm.

COc1ccc(CN2CCC(NC(=O)COc3ccc(C(=O)c4ccc(Cl)cc4)cc3)CC2)cc1 [Compound 3]
number of RAW 264.7 cells (CCK-8) at 20 μM (RAW 264.7 cells): reduced cell number | number of RAW 264.7 cells (CCK-8) at 5 μM (RAW 264.7 cells; mouse, 48 h, 5 μM): did not reduce the number of RAW 264.7 cells | interaction of APPL1 with MyD88 (Co-IP) (APPL1/MyD88 interaction): the interaction of APPL1 with MyD88 was increased | IL-6 and IL-1β protein levels (ELISA) [1]: decreased IL-6 and IL-1β protein levels | production of IL-6 and IL-1β by PEMs from treated mice [2]: reduced IL-6 and IL-1β | IL-6 and IL-1β protein levels (ELISA) (LPS-induced BMMs): decreased IL-6 and IL-1β protein levels
